The values below come from patent US5981181A, “DNA sequences with oligosaccharide transporter, plasmids bacteria and plants containing a transporter as well as a process for the preparation and transformation of yeast strains for identification of the transporter” (Hoechst Schering AgrEvo GmbH, priority 1992, dated 1999).

Usually Km stands for the concentration of substrate that gives half-maximal velocity.

For assay [1], the target named is T1, sucrose transporter from spinach (Spinacia oleracea, UniProt Q03411).
T1 construct: which contain, as inserts, the cDNA for the sucrose transporter from spinach; expressed in transfected cells; host or cells: Saccharomyces cerevisiae YSH2.64-1A suc- with integrated potato sucrose synthase (susy), transformed with YEplac112A1NE-S21
T1 sequence (Q03411 1-525): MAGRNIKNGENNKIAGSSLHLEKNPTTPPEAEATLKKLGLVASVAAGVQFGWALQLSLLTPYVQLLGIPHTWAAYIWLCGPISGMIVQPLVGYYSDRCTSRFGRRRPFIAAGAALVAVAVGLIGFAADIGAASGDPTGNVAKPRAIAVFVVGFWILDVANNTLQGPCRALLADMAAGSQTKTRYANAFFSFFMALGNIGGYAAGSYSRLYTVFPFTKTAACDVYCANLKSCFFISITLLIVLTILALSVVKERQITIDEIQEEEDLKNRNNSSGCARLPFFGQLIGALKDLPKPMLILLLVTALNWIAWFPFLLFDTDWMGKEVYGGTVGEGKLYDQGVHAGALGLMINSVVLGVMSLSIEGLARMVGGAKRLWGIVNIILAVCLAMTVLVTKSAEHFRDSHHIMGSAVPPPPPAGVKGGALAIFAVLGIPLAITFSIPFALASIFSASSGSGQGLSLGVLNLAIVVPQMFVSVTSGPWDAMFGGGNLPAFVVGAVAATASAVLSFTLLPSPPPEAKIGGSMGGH
The assay is described as follows: Competition experiment with various sugars as competitor for the labelled sucrose in yeast YEplac112A1NE-S21. Type of assay: cell-based. To be noted: in relation to YEplac112A1NE-S21 control = 100; for activity at 2000 µM: 2mM competitor; for activity at 2000 µM / activity at 10000 µM: read-out: sucrose transport (%). The method, then:
The yeast transformand YEplac112A1NE-S21, corresponding to that obtained in Example 2, was grown in liquid medium until the culture had reached the logarithmic phase. After centrifuging the culture, the cells were subjected to a pre-incubation for 5 minutes in a glucose containing medium and then taken up in a medium containing ^14 C-labelled sucrose. The uptake of the labelled sucrose was measured by the process described by Cirillo (1989, Meth Enzymol 174: 617-622). The uptake of the labelled sucrose without preincubation with glucose was compared with that with co-incubation with the inhibitors carbonyl cyanide m-chlorophenylhydrazone(CCCP), p-chloromercuribenzenesulfonic acid (PCMBS) and antimycin. The calculated reduction of the sucrose uptake by the inhibitors is shown in table I. A competition experiment with various sugars as competitor for the labelled sucrose, from which the specificity of the transporter can be read off, is shown in table II.

Assay [2] deals with T1, sucrose transporter from spinach. In words: cell-based. The method, then:
Time pattern of the uptake of sucrose in yeast cells. "pmol/mg cells"=amount of the ^14 C-labelled sucrose in pmol taken up in relation to the moisture weight of the yeast cells per mg; "112"=starting strain (without transporter); "+Glucose"=pre-incubation of the cells in a medium of 10 mM glucose; "-Glucose"=no pre-incubation of the cells; […], carbonyl cyanide m-chlorophenylhydrazone (CCCP) in a concentration of 2.5 μM; […] p-chloromercuribenzenesulfonicacid (PCMBS) in a concentration of 500 μM; […] antimycin in a concentration of 10 μM.
After centrifuging the culture, the cells were subjected to a pre-incubation for 5 minutes in a glucose containing medium and then taken up in a medium containing ^14 C-labelled sucrose. The uptake of the labelled sucrose was measured by the process described by Cirillo (1989, Meth Enzymol 174: 617-622). The uptake of the labelled sucrose without preincubation with glucose was compared with that with co-incubation with the inhibitors carbonyl cyanide m-chlorophenylhydrazone(CCCP), p-chloromercuribenzenesulfonic acid (PCMBS) and antimycin.

Assay [3] concerns sucrose transport through the membrane. To be noted: plasma membranes; Slone & Buckhout, 1991; cited from earlier work.
Where [4] appears, read: read-out: sucrose transport (%).

Consider `OC[C@H]1O[C@H](O[C@H]2[C@H](O)[C@@H](O)[C@H](O)O[C@@H]2CO)[C@H](O)[C@@H](O)[C@@H]1O` [maltose], for which the activity at 2000 µM in assay [1] is 58%. Besides, the activity at 10000 µM in assay [1] (10mM competitor) turned out to be 37%.
With `OC[C@H]1O[C@H](O[C@H]2O[C@H](CO)[C@@H](O)[C@H](O)[C@H]2O)[C@H](O)[C@@H](O)[C@@H]1O` [trehalose], the activity at 10000 µM in assay [1] (10mM competitor) was 103%.
As for `OC[C@H]1O[C@@H](O[C@H]2[C@H](O)[C@@H](O)C(O)O[C@@H]2CO)[C@H](O)[C@@H](O)[C@H]1O` (some centres unmarked) [lactose], the activity at 2000 µM in assay [1] was found to be 91%.
Regarding `O=[N+]([O-])c1ccc(O)c([N+](=O)[O-])c1` [2,4-DNP, 2,4dinitrophenol], in assay [2] (setting [4]), the activity at 25 µM amounted to 61% and the activity at 100 µM worked out at 9%.
As for `OC[C@H]1O[C@@](CO)(O[C@H]2O[C@H](CO)[C@@H](O)[C@H](O)[C@H]2O)[C@@H](O)[C@@H]1O` [sucrose], in assay [1], the activity at 2000 µM is 28%. Moreover, the Michaelis-Menten constant (Km) in assay [3] is roughly 1000 µM.
As for `OC[C@H]1OC(Oc2ccccc2)[C@H](O)[C@@H](O)[C@@H]1O` (some centres unmarked) [phenylglucoside], the activity at 2000 µM in assay [1] was determined as 7%.
With `OC[C@H]1O[C@H](OC[C@H]2OC(O)(CO)[C@@H](O)[C@@H]2O)[C@H](O)[C@@H](O)[C@@H]1O` (some centres unmarked) [palatinose], the “sucrose transport (%)” value in assay [1] (10mM competitor) is listed as 102%.
As to `O=[As]([O-])([O-])O.[Na+].[Na+]` [sodium arsenate], the “sucrose transport (%)” value in assay [2] (1mM inhibitor, in relation to YEplac112A1NE-S21 control = 100) is 34%.
On to antimycin A, for which, in assay [2] (10μM inhibitor, in relation to YEplac112A1NE-S21 control = 100), the “sucrose transport (%)” value was 59%.
`O=C(CCc1ccc(O)cc1)c1c(O)cc(O)cc1O[C@@H]1O[C@H](CO)[C@@H](O)[C@H](O)[C@H]1O` [phloridzin]: the activity at 2000 µM in assay [1] came out at 16%.
For `N#CC(C#N)=NNc1cccc(Cl)c1` [CCCP, carbonyl cyanide m-chlorophenylhydrazone], the activity at 0.5 µM in assay [2] (0.5μM inhibitor, in relation to YEplac112A1NE-S21 control = 100, read-out: sucrose transport (%)) turned out to be 65%. Besides, the activity at 2.5 µM in assay [2] (2.5μM inhibitor, in relation to YEplac112A1NE-S21 control = 100, read-out: sucrose transport (%)) was 21%.
Consider `O=S(=O)(O)c1cc[c]([Hg][Cl])cc1` [PCMBS, p-chloromercuribenzenesulfonic acid], for which the “sucrose transport (%)” value is 73% in assay [2] (25μM inhibitor, in relation to YEplac112A1NE-S21 control = 100) and 21% in assay [2] (100μM inhibitor, in relation to YEplac112A1NE-S21 control = 100).
